{"source": "paper PMC10388363", "about": "“Novel 1,4-Dihydropyridines as Specific Binders and Activators of SIRT3 Impair Cell Viability and Clonogenicity and Downregulate Hypoxia-Induced Targets in Cancer Cells” (Journal of Medicinal Chemistry, 2023)", "test_system": "CAL-62 cells", "assay": "Clonogenic assay, CAL-62", "format": "cell-based", "settings": "Homo sapiens; CAL-62, 48 h, normoxia; read-out: IC50 against colonies formation", "method": "Afterward, the selected compounds 3a–d were assayed at 50 μM for 24 and 48 h in CAL-62 and MDA-MB-231 cells to assess their ability to impair the cell viability and colony formation in either normoxia or hypoxia-induced condition, the latter obtained by adding a 200 μM cobalt chloride solution, as described in previous reports[69] (Figure 8). Most cancer cells, mainly solid types, are known to have an altered metabolism due to hypoxia, a non-physiological level of oxygen tension, which contributes to therapy resistance by causing cellular quiescence.[70] Moreover, hypoxic cancer cells can induce several factors that lead to cell proliferation and colony formation.[71]\nCells were seeded in a 100 mm dish and, once at 80–90% confluence, treated as described in the Results and Discussion section. After 24 and 48 h, cells were collected, counted, and 500 cells plated in a 100 mm dish. After about 7 days for CAL62 and 10 days for MDA-MB-231, plates were washed with phosphate-buffered saline solution (PBS); (Merck; 79382), and clones were fixed with 4% formaldehyde solution in PBS (Merck; F8775) at room temperature for 15 min. After that, the dishes were washed with PBS, and clones stained for 5 min with 0.5% crystal violet (Merck; C0775). Finally, the plates were washed with distilled water and air-dried. After scanning each individual dish, the colonies were counted the following day.", "note": "pIC50: −log10 of the molar value.", "data": [{"smiles": "CCOC(=O)C1=CN(C(=O)c2cc(OC)cc(OC)c2)C=C(C(=O)OCC)C1c1ccccc1", "note": "[Compound 3d, Diethyl 1-(3,5-dimethoxybenzoyl)-4-phenyl-1,4-dihydropyridine-3,5-dicarboxylate]", "values": [{"measurement": "pIC50", "value": "~5.60"}]}]}
